Experimental data published in publication PMC11750451, “Diarylamidine activation of a brachiopod DEG/ENaC/ASIC channel” (The Journal of Biological Chemistry, 2024).
“Also recorded” adds a separate entry of the source. Like-named read-outs stand apart in the source and are kept apart here. Blank lines part the entries; values can stand above or below the compound they belong to.

Key:
[1] = biological target: DiaaNaC (diarylamidine-activated Na+ channel) (Novocrania anomala, UniProt A0AAU8BSW0); experiment: Two-electrode voltage clamp of Xenopus laevis oocytes expressing WT DiaaNaC; type: cell-based; conditions: for activation of DiaaNaC (agonist activity): compound at 1 mM; for inward currents in absence of extracellular Na+: 1 mM compound, 140 KCl instead of NaCl; for reversal potential (Erev) of pentamidine-gated current: n = 5
Chain of DiaaNaC (diarylamidine-activated Na+ channel) (A0AAU8BSW0 entry or part of it): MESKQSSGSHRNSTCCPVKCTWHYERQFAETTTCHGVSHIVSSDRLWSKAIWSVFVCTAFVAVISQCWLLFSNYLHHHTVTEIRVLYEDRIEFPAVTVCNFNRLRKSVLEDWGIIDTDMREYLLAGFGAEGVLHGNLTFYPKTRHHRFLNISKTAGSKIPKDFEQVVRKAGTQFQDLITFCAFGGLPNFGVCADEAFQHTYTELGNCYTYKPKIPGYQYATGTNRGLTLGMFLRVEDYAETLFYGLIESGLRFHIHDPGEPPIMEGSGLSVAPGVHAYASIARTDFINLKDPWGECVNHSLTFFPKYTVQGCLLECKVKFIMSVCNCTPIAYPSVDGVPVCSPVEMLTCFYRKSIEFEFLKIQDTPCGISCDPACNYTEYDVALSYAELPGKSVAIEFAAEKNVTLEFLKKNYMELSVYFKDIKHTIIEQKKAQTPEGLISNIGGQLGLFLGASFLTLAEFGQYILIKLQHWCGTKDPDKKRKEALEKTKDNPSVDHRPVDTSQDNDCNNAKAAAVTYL
Protocol: (§1) Before electrophysiological recordings or surface expression determination, the oocytes were cultured for 3 days at 18 °C in 50% Leibowitz medium (L1518, Merck), supplemented with 0.25 mg/ml gentamicin, 1 mM L-glutamine, and 15 mM Hepes (pH 7.6). For surface expression detection, mouse anti-Myc tag monoclonal IgG1 antibody (MA121316, Fisher Scientific) was used to detect the myc tag attached to the 3′-end of all the constructs used in this work, and the protocol previously used in our lab was followed ([47]) using a Zeiss Axio Scope A1 microscope. The intensity of the expression signal was quantified by tracing a perpendicular line across the oocyte membrane and measuring the gray values with ImageJ software ([48]).
Whole cell currents were recorded from oocytes by two-electrode voltage clamp using an OC-725D amplifier (Warner Instruments) controlled via an Axon Digitata 1550B interface and pClamp v11 (Molecular Devices), acquired at 1 kHz, and filtered at 200 Hz. Currents were analyzed in pClamp v10.7 software (Molecular Devices) and additionally filtered at 10 Hz for display in figures. Oocytes were clamped at −60 mV, unless otherwise indicated, and continuously perfused with a bath solution containing (in mM): 140 NaCl, 1.8 BaCl2, and 10 Hepes. The pH was adjusted to 7.5 with NaOH, HCl, or KOH, as appropriate. For current–voltage relationships where K^+ replaced Na^+, KCl replaced NaCl in the above bath solution. In most experiments, activating solution was applied to oocytes in between resting periods of at least 30 to 60 s. After retrieving current amplitude from pClamp, all data were analyzed in Prism v9 (GraphPad Software). Currents were normalized by dividing by the maximum current at that oocyte, giving “I/Imax” in most concentration–response graphs. For graphs in figures and for calculating half-maximal effective (or inhibitory) concentration (EC50 or IC50) values, variable slope nonlinear regression was used in Prism v9, with the equation Y = Bottom + (Top-Bottom)/ […] 10^∧((LogEC50-X)∗HillSlope)), and maximum was constrained to one and minimum to zero. Curves in figures are fit to the mean data points. EC50 and IC50 values reported in text and used in statistical comparisons are means from curve fits to data on individual oocytes.

DiaaNaC L70S = experiment: Two-electrode voltage clamp, DiaaNaC L70S mutant in oocytes; type: cell-based, Novocrania anomala; conditions: 0 mV
Excerpt: The DiaaNaC full-length coding sequence was amplified by PCR from N. anomala cDNA and subcloned via SalI and BamHI sites into a pSP64 (polyA) vector (P1241, Promega) modified to contain the X. laevis globin 5′ and 3′ UTRs and a C-terminal Myc-tag linked to the final DiaaNaC residue via Gly-Ser linker (the BamHI site) (see ([20]) for full vector sequence). The cDNA sequence was deposited in NCBI GenBank accession number PP942623. Recombinant PCR with Phusion High-Fidelity DNA polymerase (F-549L, Thermo Fisher Scientific) was used to perform site-directed mutagenesis, as described previously ([45]). […]
Before electrophysiological recordings or surface expression determination, the oocytes were cultured for 3 days at 18 °C in 50% Leibowitz medium (L1518, Merck), supplemented with 0.25 mg/ml gentamicin, 1 mM L-glutamine, and 15 mM Hepes (pH 7.6). […] The intensity of the expression signal was quantified by tracing a perpendicular line across the oocyte membrane and measuring the gray values with ImageJ software ([48]).
Whole cell currents were recorded from oocytes by two-electrode voltage clamp using an OC-725D amplifier (Warner Instruments) controlled via an Axon Digitata 1550B interface and pClamp v11 (Molecular Devices), acquired at 1 kHz, and filtered at 200 Hz. Currents were analyzed in pClamp v10.7 software (Molecular Devices) and additionally filtered at 10 Hz for display in figures. […]

DiaaNaC E82A = experiment: Two-electrode voltage clamp, DiaaNaC E82A mutant in oocytes; type: cell-based, Novocrania anomala
Excerpt: (§2) The DiaaNaC full-length coding sequence was amplified by PCR from N. anomala cDNA and subcloned via SalI and BamHI sites into a pSP64 (polyA) vector (P1241, Promega) modified to contain the X. laevis globin 5′ and 3′ UTRs and a C-terminal Myc-tag linked to the final DiaaNaC residue via Gly-Ser linker (the BamHI site) (see ([20]) for full vector sequence). The cDNA sequence was deposited in NCBI GenBank accession number PP942623. Recombinant PCR with Phusion High-Fidelity DNA polymerase (F-549L, Thermo Fisher Scientific) was used to perform site-directed mutagenesis, as described previously ([45]). […] EcoRI (FD0274, Thermo Fisher Scientific) was used to linearize the cDNAs via a site shortly after the poly(A) sequence, and the mMESSAGE mMACHINE SP6 Transcription Kit (AM1340, Thermo Fisher Scientific) was used to synthesize cRNA.
as §1
(§3) Whole cell currents were recorded from oocytes by two-electrode voltage clamp using an OC-725D amplifier (Warner Instruments) controlled via an Axon Digitata 1550B interface and pClamp v11 (Molecular Devices), acquired at 1 kHz, and filtered at 200 Hz. Currents were analyzed in pClamp v10.7 software (Molecular Devices) and additionally filtered at 10 Hz for display in figures. […] After retrieving current amplitude from pClamp, all data were analyzed in Prism v9 (GraphPad Software). […]

DiaaNaC E358A = experiment: Two-electrode voltage clamp, DiaaNaC E358A mutant in oocytes; type: cell-based, Novocrania anomala
Excerpt: as §2, §1, §3

DiaaNaC G6′S = experiment: Two-electrode voltage clamp, DiaaNaC G6′S mutant in oocytes; type: cell-based, Novocrania anomala
Excerpt: as §2, §1, §3

- activation of DiaaNaC (agonist activity) ([1]; −60 mV): none of these compounds activated
SMILES: Cc1nc(N=C(N)N)nc2ccccc12 [GMQ, 2-(4-methylquinazolin-2-yl)guanidine]

SMILES: C[C@H](CCC(=O)O)[C@H]1CC[C@H]2[C@@H]3[C@@H](O)C[C@@H]4C[C@H](O)CC[C@]4(C)[C@H]3CC[C@]12C [Ursodeoxycholic acid, ursodeoxycholic acid]
- current activated ([1]; UDCA 2 mM, −60 mV, n = 7): 73.1 ± 10 nA

- activation of DiaaNaC (agonist activity) ([1]; −60 mV): neither activated
SMILES: NCCCCNCCCN [spermidine]

SMILES: N=C(N)c1ccc(/N=N/Nc2ccc(C(=N)N)cc2)cc1 [diminazene]
- diminazene-gated currents (DiaaNaC L70S): abolished
- diminazene potency compared to WT (DiaaNaC E82A; 0 mV): significantly reduced
- diminazene agonist potency compared to WT (DiaaNaC E82A; −60 mV): decrease in agonist potency
- channel block by diminazene (DiaaNaC E82A; −60 mV, 1 and 3 mM diminazene): noticeable block develops
- inward currents in absence of extracellular Na+ ([1]; −60 mV): tiny, if any
- concentration that activates DiaaNaC ([1]; WT): ≥ 300 µM
- concentration that blocks DiaaNaC ([1]; WT): ≥ 1 mM
- effect on constitutive current ([1]; diminazene 1 mM, absence of Ca2+): without inhibiting the constitutive current
- inward currents activated ([1]; diminazene 1 mM, absence of Ca2+, −60 mV, n = 7): 1.0 ± 0.2 μA
- EC50 ([1]; holding potential 0 mV, WT, read-out: diminazene EC50 for activation): 409 ± 71 µM
- EC50 ([1]; −60 mV, absence of Ca2+, WT, read-out: EC50 for activation of DiaaNaC): 287 µM
- inhibition at 1000 µM ([1]; −100 mV, 1 mM diminazene, read-out: block of the agonist-gated current): ~100%
- diminazene potency compared to WT (DiaaNaC E358A; 0 mV): significantly reduced
- diminazene agonist potency compared to WT (DiaaNaC E358A; −60 mV): decrease in agonist potency
- diminazene concentration at which block occurs (DiaaNaC E358A; −60 mV): 3 mM
- diminazene potency compared to WT (DiaaNaC G6′S; 0 mV): significantly reduced
- diminazene agonist potency compared to WT (DiaaNaC G6′S; −60 mV): decrease in agonist potency
- channel block by diminazene (DiaaNaC G6′S; −60 mV, even at 3 mM diminazene): block was not evident

SMILES: NCCCNCCCCNCCCN [spermine]
- activation of DiaaNaC (agonist activity) ([1]; −60 mV): neither activated; also recorded: none of these compounds activated

SMILES: NC(N)=NCCCCN=C(N)N [arcaine]
- activation of DiaaNaC (agonist activity) ([1]; −60 mV): neither activated; also recorded: none of these compounds activated

- inward currents in absence of extracellular Na+ ([1]; −60 mV): tiny, if any
SMILES: N=C(N)c1ccc(-c2cc3ccc(C(=N)N)cc3[nH]2)cc1 [DAPI, 4′,6-diamidino-2-phenylindole]

SMILES: N=C(N)c1ccc(OCCCCCOc2ccc(C(=N)N)cc2)cc1 [pentamidine]
- reversal potential (Erev) of pentamidine-gated current ([1]; 150 μM pentamidine, extracellular NaCl): 53.5 ± 5.0 mV
- reversal potential (Erev) of pentamidine-gated current ([1]; 450 μM pentamidine, extracellular NaCl): 57.6 ± 3.4 mV
- pentamidine EC50 in the presence of amiloride ([1]; 600 μM amiloride): not significantly altered
- EC50 ([1]; EC50 for activation of DiaaNaC, −60 mV, absence of Ca2+, WT): 592 ± 30.7 µM
- reversal potential (Erev) of pentamidine-gated current ([1]; K+ the only monovalent cation in extracellular solution, pentamidine 450 μM, estimated): −12.2 ± 4.6 mV
- EC50 ([1]; pentamidine EC50, +10 mV, n = 4): 959 ± 80.7 µM
- EC50 ([1]; pentamidine EC50, +80 mV, n = 4): 1030 ± 101 µM
- EC50 ([1]; pentamidine EC50, −100 mV): 471 ± 38.4 µM
- EC50 ([1]; pentamidine EC50 with Ca2+, 1.8 mM Ca2+, n = 6): 1000 ± 100 µM
- block of the agonist-gated current ([1]; −100 mV, 1 mM pentamidine): no such block
